Measured values as given in the supplement of paper PMC4977894.
± gives the standard deviation of the averaged measurements.

What was measured:
[1] = test system: Homo sapiens (human subject panel, olfactory perception); experiment: perceived odor familiarity rating (rating 0-100); higher = more familiar
Protocol: (§1)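 Human olfactory psychophysics. 55 healthy subjects (after excluding 6 low performers) sniffed 1 mL of each odorant diluted in paraffin oil (vials, two dilutions per molecule, 20 molecules presented twice). Each subject rated intensity, pleasantness and familiarity on a 0-100 slider, starting at 50 and required to move. Ratings were given only when the subject reported detecting a smell; per-subject ratings are averaged over subjects.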

[2] = test system: Homo sapiens (human subject panel, olfactory perception); experiment: perceived odor intensity rating (rating 0-100); higher = stronger perceived smell
Protocol: as §1

[3] = test system: Homo sapiens (human subject panel, olfactory perception); experiment: perceived odor pleasantness rating (rating 0-100); higher = more pleasant
Protocol: as §1

[4] = odor dilution in paraffin oil: 1/1,000
[5] = odor dilution in paraffin oil: 1/100,000
[6] = odor dilution in paraffin oil: 1/10
[7] = odor dilution in paraffin oil: 1/10,000,000

Row | SMILES | perceived odor familiarity rating [1, 4] | perceived odor familiarity rating [1, 5] | perceived odor intensity rating [2, 4] | perceived odor intensity rating [2, 5] | perceived odor pleasantness rating [3, 4] | perceived odor pleasantness rating [3, 5] | perceived odor familiarity rating [1, 6] | perceived odor intensity rating [2, 6] | perceived odor pleasantness rating [3, 6] | perceived odor familiarity rating [1, 7] | perceived odor intensity rating [2, 7] | perceived odor pleasantness rating [3, 7]
1 | O=C(Cc1ccccc1)OCCc1ccccc1 [Phenethyl phenylacetate] | 32.8 ± 26 | 31.6 ± 32 | 42.5 ± 33 | 17.2 ± 24 | 53.4 ± 23 | 52.9 ± 23 |  |  |  |  |  | 
2 | COc1ccc(C(C)=O)cc1 [Acetanisole] | 50 ± 26 |  | 44.1 ± 28 |  | 68.8 ± 19 |  | 56.5 ± 30 | 82.2 ± 16 | 53.3 ± 28 |  |  | 
3 | NCCCC[C@H](N)C(=O)O [L-Lysine] | 48.9 ± 31 |  | 59.1 ± 30 |  | 27.4 ± 22 |  | 45.4 ± 34 | 81.7 ± 22 | 18.5 ± 24 |  |  | 
4 | CCOC(=O)CC(O)C(=O)OCC (centres undefined) [Diethyl malate] | 35.8 ± 28 | 22.1 ± 26 | 24.6 ± 25 | 12.6 ± 17 | 41.4 ± 24 | 55.2 ± 19 |  |  |  |  |  | 
5 | CC(C)C(=O)OCc1ccc2c(c1)OCO2 [Piperonyl isobutyrate] | 38.4 ± 29 | 30.2 ± 25 | 29.4 ± 27 | 26.4 ± 30 | 48.3 ± 25 | 43.1 ± 18 |  |  |  |  |  | 
6 | O=C(OCCc1ccccc1)c1ccccc1 [Phenethyl benzoate] | 24.1 ± 21 |  | 19.6 ± 22 |  | 49.4 ± 17 |  | 47.1 ± 31 | 38 ± 27 | 53.6 ± 24 |  |  | 
7 | CCCC(=O)OC [Methyl butyrate] | 48.2 ± 29 | 45.1 ± 32 | 79.2 ± 19 | 42.8 ± 30 | 32.9 ± 31 | 27.8 ± 25 |  |  |  |  |  | 
8 | O.O.O=P([O-])([O-])O.[Na+].[Na+] [Sodium phosphate dibasic] | 31.5 ± 24 |  | 24.1 ± 25 |  | 46.2 ± 26 |  | 40.5 ± 32 | 27.2 ± 27 | 63.4 ± 26 |  |  | 
9 | O=Cc1ccccc1O [salicylaldehyde] | 51.7 ± 31 | 39.9 ± 28 | 77.9 ± 19 | 53.5 ± 28 | 30.6 ± 26 | 39.5 ± 23 |  |  |  |  |  | 
10 | CC1CCCC(=O)O1 (centres undefined) [delta-Hexalactone] | 38.8 ± 31 | 32.7 ± 28 | 48.4 ± 32 | 18.4 ± 21 | 45 ± 25 | 50.5 ± 21 |  |  |  |  |  | 
11 | CSC [methyl sulfide] | 43.7 ± 34 | 47.3 ± 32 | 56.4 ± 35 | 58.8 ± 32 | 33.6 ± 27 | 33.4 ± 27 |  |  |  |  |  | 
12 | Cc1ccc(C=O)o1 [5-Methylfurfural] | 52.6 ± 31 | 36 ± 29 | 59 ± 31 | 17.9 ± 24 | 59.3 ± 24 | 45.8 ± 23 |  |  |  |  |  | 
13 | CC=Cc1ccc(OC(=O)Cc2ccccc2)c(OC)c1 [Isoeugenyl phenylacetate] | 68 ± 29 | 55.8 ± 30 | 78.7 ± 18 | 42.4 ± 32 | 56.2 ± 32 | 59.7 ± 26 |  |  |  |  |  | 
14 | CCCCCCOC(=O)c1ccccc1 [Hexyl benzoate] | 37.8 ± 28 |  | 40.7 ± 33 |  | 37.4 ± 27 |  | 47.5 ± 28 | 69.5 ± 25 | 34.7 ± 25 |  |  | 
15 | COc1ccccc1S [2-Methoxythiophenol] |  | 40.6 ± 34 |  | 88.2 ± 13 |  | 15.7 ± 23 |  |  |  | 37.6 ± 30 | 25.8 ± 22 | 52.7 ± 24
16 | COc1ccccc1OC(C)=O [2-Methoxyphenyl acetate] | 46.3 ± 30 | 45.5 ± 30 | 74.2 ± 20 | 56 ± 30 | 37.4 ± 27 | 45.5 ± 27 |  |  |  |  |  | 
17 | SC1CCCC1 [Cyclopentanethiol] |  | 55.4 ± 34 |  | 92.4 ± 10 |  | 16.5 ± 22 |  |  |  | 57.8 ± 33 | 78.1 ± 21 | 24 ± 23

Row | SMILES | perceived odor familiarity rating [1, 4] | perceived odor familiarity rating [1, 5] | perceived odor intensity rating [2, 4] | perceived odor intensity rating [2, 5] | perceived odor pleasantness rating [3, 4] | perceived odor pleasantness rating [3, 5] | perceived odor familiarity rating [1, 6] | perceived odor intensity rating [2, 6] | perceived odor pleasantness rating [3, 6] | perceived odor familiarity rating [1, 7] | perceived odor intensity rating [2, 7] | perceived odor pleasantness rating [3, 7]
18 | C=C(C)OC(C)=O [Isopropenyl acetate] |  | 31.1 ± 27 |  | 27.1 ± 25 |  | 46.9 ± 24 |  |  |  | 38.2 ± 31 | 18.8 ± 26 | 45.5 ± 21
19 | C=CCc1ccc(OC)c(OC)c1 [4-allyl-1,2-dimethoxy benzene] | 45.6 ± 30 | 39.8 ± 29 | 37.5 ± 29 | 17.2 ± 21 | 54.4 ± 25 | 55.3 ± 24 |  |  |  |  |  | 
20 | CC(=O)OCC(COC(C)=O)OC(C)=O [Triacetin] | 39.2 ± 35 |  | 45.1 ± 30 |  | 38.9 ± 24 |  | 54.5 ± 35 | 57.8 ± 29 | 33.1 ± 25 |  |  | 
21 | CCCCCCCCCC(C)=O [2-Undecanone] | 39.6 ± 30 |  | 31.9 ± 28 |  | 50.4 ± 22 |  | 49.5 ± 32 | 79.4 ± 22 | 43.3 ± 32 |  |  | 
22 | CCCO [propanol] | 30.3 ± 21 | 48.1 ± 32 | 28.7 ± 28 | 26.8 ± 28 | 49.7 ± 20 | 50.1 ± 21 |  |  |  |  |  | 
23 | CC(=O)OC/C=C(\C)CCC=C(C)C [geranyl acetate] |  | 36.4 ± 31 |  | 16.3 ± 19 |  | 54.4 ± 19 |  |  |  | 38.7 ± 32 | 20.4 ± 24 | 47.9 ± 25
24 | C[S+](C)[O-] [Methyl sulfoxide] | 41.6 ± 29 |  | 35.3 ± 31 |  | 32.1 ± 26 |  | 41.7 ± 33 | 50.7 ± 30 | 36.7 ± 24 |  |  | 
25 | CC(C)(C)O [tert-butanol] | 34.7 ± 29 |  | 24.8 ± 30 |  | 58.8 ± 22 |  | 47.5 ± 32 | 56 ± 32 | 44.9 ± 24 |  |  | 
26 | CC(=O)OC(C)(C)Cc1ccccc1 [alpha,alpha-Dimethylphenethyl acetate] | 40.3 ± 30 |  | 36.6 ± 30 |  | 52.5 ± 21 |  | 48.8 ± 32 | 79 ± 17 | 51.9 ± 31 |  |  | 
27 | CC(=O)OCC1CCCO1 (centres undefined) [Tetrahydrofurfuryl acetate] | 42.4 ± 28 | 27.8 ± 24 | 55.6 ± 24 | 17 ± 24 | 40.6 ± 26 | 49.1 ± 26 |  |  |  |  |  | 
28 | CC/C=C\CCOC(=O)C(C)C [cis-3-Hexenyl isobutyrate] | 55.4 ± 31 | 40.1 ± 30 | 73.3 ± 25 | 30 ± 28 | 47.1 ± 29 | 40.8 ± 22 |  |  |  |  |  | 
29 | OCCc1ccccc1 [2-phenylethanol] | 61.9 ± 30 | 61.8 ± 29 | 70 ± 26 | 59.6 ± 29 | 52.8 ± 30 | 63.1 ± 24 |  |  |  |  |  | 
30 | CC/C=C\CCOC(C)=O [cis-3-hexenyl acetate] | 73.6 ± 28 | 64.7 ± 30 | 76.7 ± 22 | 41 ± 31 | 63.8 ± 30 | 70.9 ± 20 |  |  |  |  |  | 
31 | CCCCCCCC(=O)OCCCCC [N-Amyl octanoate] | 42.3 ± 27 | 25.1 ± 28 | 37.1 ± 26 | 19.5 ± 28 | 48.4 ± 23 | 58.8 ± 24 |  |  |  |  |  | 
32 | COc1cccc(C=O)c1 [m-Anisaldehyde] | 47.4 ± 29 | 41.3 ± 30 | 48.7 ± 31 | 12.2 ± 19 | 53 ± 24 | 54 ± 25 |  |  |  |  |  | 
33 | Cc1ccc(C(C)CC=O)o1 (centres undefined) [3-(5-Methyl-2-furyl)butanal] | 41.5 ± 32 | 36 ± 31 | 74.3 ± 22 | 30.8 ± 30 | 27.9 ± 24 | 41.6 ± 25 |  |  |  |  |  | 
34 | C=C(C)C1CC=C(C)C(OC(C)=O)C1 (centres undefined) [carvyl acetate] | 43.5 ± 32 | 37.2 ± 30 | 75 ± 25 | 38.6 ± 33 | 27.2 ± 22 | 44.1 ± 23 |  |  |  |  |  | 
